The values that follow come from patent publication EP4652998A1, “TREATMENT OF RECEPTOR-INTERACTING PROTEIN KINASE 1- MEDIATED DISEASE WITH ECLITASERTIB” (Technische Universität München, priority 2024, dated 2025).

The subject of one assay is C57BL/6 mice. Put plainly: Tnf-α-driven systemic inflammatory response syndrome (SIRS) model, hypothermia. Type of assay: in vivo. The settings on record: 15 min after Tnf-α (0.3 mg/kg)/zVAD i.v., 5 h, Tnf-α/zVAD alone -9.3 ± 0.3, vehicle -1.9 ± 0.5. The procedure: TNF-α driven systemic inflammatory response syndrome (SIRS) model was performed as described before (Immunity 35, 908-918 (2011)). Briefly, male C57BL/6 mice (n=6 per group) were injected into the tail vain with a volume of 125 µl per 25 g mouse of either vehicle (15 % PEG 200; 8.4 % DMSO; 0.6 % NaCl) or a mixture of murine Tnf-α (0.3 mg/kg) and zVAD (6.7 mg/kg) prepared in vehicle. No Tnf-α/zVAD was administered to the vehicle group. 15 min after induction of hypothermia by application of Tnf-α/zVAD mix, animals were orally dosed with RIPK1 inhibitor or GSK`963. Body temperature was monitored every hour using radio-frequency identification (RFID) technology with IPTT-300 transponders that were injected subcutaneously 2-3 days before initiation of the experiment.
Next, the effects of RIPK1 inhibition were assessed in vivo using a murine Tnf-α-driven systemic inflammatory response syndrome model (Immunity 35, 908-918 (2011)). C57BL/6 mice (n=6 per group) were injected of either vehicle (15 % PEG 200; 8.4 % DMSO; 0.6 % NaCL 0.9 %) or a mixture of murine Tnf-α (0.3 mg/kg) and zVAD (16.7 mg/kg) into the tail vein. 15 minutes after induction of hypothermia, animals were orally dosed with the RIPK1 inhibitors SAR443122 or GSK`963, a previously described RIPK1 inhibitor ( Cell Death Discov 1, 15009 (2015)). Body temperature was monitored up to 5 hours using radio-frequency identification technology with IPTT-300 transponders that were injected subcutaneously 2-3 days before initiation of the experiment (Fig. 4A). Animals receiving the Tnf-α/zVAD mixture rapidly responded with a significant decrease of body temperature within 5 hours from 37.3 ± 0.2 °C to 27.9 ± 0.2 °C and a delta temperature of -9.3 ± 0.3 °C (p=0.0002) compared to vehicle (-1.9 ± 0.5 °C). Oral administration of RIPK1 inhibitor led to a dose dependent increase of delta body temperature (1 mg/kg: -8.8 ± 0.5 °C; 5 mg/kg: -7.6 ± 1.2 °C; 15 mg/kg: -3.4 ± 1.3 °C, p=0.0007 to Tnf-α/zVAD) (Fig. 4B).

For assay [1], the system named is lesional skin of LP patients. Description: Human lesional skin biopsy cultures ex vivo, gene expression by qPCR. Conditions: 1 µM inhibitor, 4 h, LP skin biopsies (n=5), compared to autologous non-treated controls. The format is cell-based. As for the experimental part:
6 mm punch biopsies of lesional skin of LP patients (n=5) were obtained under local anaesthesia. Biopsies were divided into two parts and treated with the RIPK1 inhibitor (1 µM, SANOFI) or without as untreated control sample for 4 h in T cell media (RPMI 1640 medium with 1 % human serum, 0.1 mM non-essential aminoacids, 2 mM L-Glutamine, 1 mM sodium pyruvate and 100 U/mL penicillin/streptomycin). After stimulation, biopsies were stored in RNALater® solution at -80 °C until RNA preparation. RNA was isolated using QIAzol Lysis Reagent (Qiagen) and miRNeasy Mini Kit (Qiagen) according to manufacturer's protocol. mRNA was transcribed into cDNA with Applied Biosytems High Capacity cDNA Reverse Transcription Kit (Thermo Fisher Scientific). Gene expression was measured on an Applied Biosystems ViiA7 Real-Time PCR system (Thermo Fisher Scientific) using Fast Start Universal SYBRGreen Master Rox (Roche). Primers were ordered from Metabion (http://www.metabion.com) and are listed in supplementary Table S5. Data are shown as relative gene expression to untreated sample using 2^-(ΔΔcT) method. Table S5. Primer sequences. Fw = forward. rv = reverse.
On the technique in general: Quantitative PCR measures a nucleic acid by following its amplification.

Assay [2] has as its system keratinocyte skin equivalents. Description: Three-dimensional keratinocyte skin equivalents stimulated with LP/LE-TCS, histology and epidermal thickness. The format is cell-based, human. The settings on record: 100 nM inhibitor, LP/LE-TCS 1:10 + zVAD + SMAC, 72 h. As for the experimental part: Three-dimensional keratinocyte skin equivalents were generated as described before Arch Dermatol Res 296, 203-211 (2004)). Briefly, 3.0E^5 primary human keratinocytes were seeded in 500 µL keratinocyte medium with 1.5 mM CaCh into the insert and placed in a well containing the same medium. After two days, keratinocytes were exposed to the air-liquid interface and medium in the surrounding well was supplemented with 50 µg/mL Vitamin C. Nine days after airlift, the skin equivalents were pre-treated for 1 h with RIPK1 inhibitor (100 nM, SANOFI) followed by a stimulation with supernatant mix of lesional T cells from LP and LE patients (1: 10 diluted) in the presence of zVAD (20 µM, Cell Signaling, #60332), SMAC (1 µM, LC Laboratories, #B-9135) and the RIPK1 inhibitor for 72 h. Afterwards, membranes of the fixated skin equivalents were cut out with a scalpel, divided into two pieces, formalin fixed and embedded in paraffin. […] Concentrations of key cytokines in the supernatant mix of lesional T cells were determined by a multiplex ELISA (Biorad) and listed in Table S4. […]

Structures are written as SMILES.

The compound `CN1C(=O)[C@@H](NC(=O)c2nnc(Cc3ccccc3)[nH]2)COc2cccnc21` [SAR443122, 5-Benzyl-N-[(3S)-5-methyl-4-oxo-2,3-dihydropyrido[3,2-b][1,4]oxazepin-3-yl]-4H-1,2,4-triazole-3-carboxamide] registered a delta body temperature in the assay on C57BL/6 mice (1 mg/kg oral) of -8.8 ± 0.5 °C. This compound also registered a delta body temperature in the assay on C57BL/6 mice (5 mg/kg oral) of -7.6 ± 1.2 °C. In addition, the delta body temperature in the assay with C57BL/6 mice (15 mg/kg oral, p=0.0007 to Tnf-α/zVAD) is -3.4 ± 1.3 °C. In addition, in assay [1], the “downregulation of CCL3” value is recorded as 62%, the “downregulation of CXCL9” value worked out at 57%, the “downregulation of CXCL10” value worked out at 40% and the “downregulation of CXCL11” value is recorded as 43%. Besides, in assay [1], the “downregulation of IFNg” value came to 60%, the “downregulation of IL1RA” value was 65% and the “downregulation of TNF” value is 60%. For the same compound, in assay [2], the epidermal architecture entry was “restored the normal epidermal architecture”. Besides, the epidermal thickness in assay [2] (stimulated control 102.0 ± 5.1, unstimulated 61.3 ± 5.4, p<0.0001) is 80.3 ± 5.1 µm.
